The source of these data is patent publication US8907126B2, “Tyrosine derivative and method for producing tyrosine derivative” (NARD Institute, Ltd., priority 2012, dated 2014).

In this test the target is T1, human recombinant melatonin MT1 receptors (Homo sapiens, UniProt P48039).
T1 construct: expressed in transfected cells; host or cells: CHO-K1 cells (membranes)
Nature of the test: Inhibitory activity test against melatonin MT1 receptor ([35S]GTPγS binding, SPA). The note with it: membranes of CHO-K1 cells expressing MT1, 0.1 nM 2-iodomelatonin, 0.3 nM [35S]GTPγS, HEPES buffer pH 7.4; test concentration not given. It is filed as biochemical. The method, then:
An inhibitory activity of the tyrosine derivative of the present invention against a melatonin MT1 receptor was evaluated. Specifically, human recombinant melatonin MT1 receptors expressed in CHO-K1 cells were used in modified HEPES buffer pH 7.4. The tyrosine derivative obtained in the above Example 8 was preincubated with 0.025 mg/mL of membranes of the cell and 1 μM of guanosine diphosphate in modified HEPES buffer (pH 7.4) at 25° C. for 20 minutes, then SPA, i.e. Scintillation proximity assay, beads were added thereto. The mixture was preincubated at 30° C. for 60 minutes. The reaction was initiated by adding 0.3 nM of [^35S]GTPγS and incubating the mixture for 30 minutes, and the test compound-induced inhibition of 0.1 nM 2-iodomelatonin-induced increase of [^35S]GTPγS binding response was measured.
(GTPγS resists hydrolysis and so accumulates on activated G proteins.)

SMILES strings stand for the structures.

T1 sequence (P48039 whole entry): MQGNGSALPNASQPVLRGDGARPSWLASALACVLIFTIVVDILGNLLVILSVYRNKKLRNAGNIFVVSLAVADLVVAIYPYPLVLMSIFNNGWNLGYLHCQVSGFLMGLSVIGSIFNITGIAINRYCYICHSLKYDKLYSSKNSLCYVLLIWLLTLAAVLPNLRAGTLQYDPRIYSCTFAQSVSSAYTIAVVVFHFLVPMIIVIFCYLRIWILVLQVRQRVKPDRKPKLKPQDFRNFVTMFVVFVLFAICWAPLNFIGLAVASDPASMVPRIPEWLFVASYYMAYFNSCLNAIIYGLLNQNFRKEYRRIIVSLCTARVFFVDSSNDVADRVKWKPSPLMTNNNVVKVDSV

Consider `CC(C)(C)OC(=O)NC(Cc1cc(OCCCl)ccc1I)C(=O)OC(C)(C)C` (stereo not shown) [Example 8], for which the “inhibition of 2-iodomelatonin-induced increase of [35S]GTPγS binding response” value amounted to 33%.
